# “Also recorded” adds a separate entry of the source. Where two headings read alike, the source gives them in different places.
# Key:
# [1] = target: sigma receptor from guinea pig brain; assay: [3H]AZ-DTG binding and photoaffinity labeling of the sigma receptor; conditions: in the dark; brain membranes
# Method: (§1) The filters were then irradiated with long-wavelength UV light for a 15 minute period. Filter-bound proteins were solubilized with 50 mM Tris pH 7.4, 0.1% sodium dodecyl sulfate. Solubilized proteins were subjected to SDS-polyacrylamide gel electrophoresis.
# [2] = target: T1, sigma receptor from guinea pig brain (Cavia porcellus, UniProt Q60492); assay: as above
# T1 construct: from tissue; host or cells: guinea pig brain membranes
# T1 sequence (Q60492 whole entry): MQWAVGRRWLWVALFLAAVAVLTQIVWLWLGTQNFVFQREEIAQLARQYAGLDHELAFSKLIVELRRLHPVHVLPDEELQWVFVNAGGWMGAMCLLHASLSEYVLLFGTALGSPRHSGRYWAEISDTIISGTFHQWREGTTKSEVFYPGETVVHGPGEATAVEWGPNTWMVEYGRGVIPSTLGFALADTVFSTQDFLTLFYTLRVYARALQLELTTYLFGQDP
# Method: as §1
# [3] = tested on: rhesus monkeys; conditions: introduction of foreign objects into cages; cited from earlier work
# [4] = target: sigma receptor (Cavia porcellus, UniProt Q60492); assay: biochemical
# Chain of sigma receptor (Cavia porcellus, UniProt Q60492) (Q60492 whole entry): as above
# [5] = tested on: sigma receptor; assay: [3H]DTG saturation binding / binding characteristics, guinea pig brain membranes; conditions: for binding to sigma receptor sites (words): guinea pig brain membrane homogenates and slide-mounted rat and guinea pig brain sections
# Method: Values obtained were the mean of quadruplicate determinations.
# Frozen guinea pig brains (Pel-Freeze, Rogers, Ariz.) were homogenized in 10 volumes (w/v) of 0.32M sucrose using a Polytron homogenizer. The homogenate was spun at 900×g for 10 minutes at 4° C. The supernatant was collected, and spun at 22,000×g for 20 minutes at 4° C. The pellet was resuspended in 10 volumes of 50 mM Tris/HCl buffer, pH 7.4, incubated at 37° C. for 30 minutes and spun again at 22,000×g for 20 minutes at 4° C. The pellet was then resuspended in 10 volumes of 50 mM Tris/HCl buffer, pH 7.4 and 10 ml aliquots of this membrane suspension were stored frozen at -70° C. until used in the binding assay.
# For radioreceptor assays aliquots of the frozen membrane suspension were thawed and diluted tenfold with […] Tris/HCl buffer, pH 7.4. […] The protein concentration in the 1 ml final incubation volume was 800 ug, corresponding to 32 mg of brain tissue (original wet weight). […] After incubation for 90 minutes at room temperature the membrane suspension was rapidly filtered under vacuum through Whatman GF/B glass fiber filters using a Brandel 48 well cell harvester (Brandel, Gaithersburg, Md.). The filters were washed with 3×5 ml ice-cold […] Tris buffer (pH 7.4 at room temperature). The filters were dissolved in 10 ml each of Cytoscint (Westchem Products, San Diego, Calif.) and radioactivity was measured by liquid scintillation spectrometry at a counting efficiency of 35-50%. Saturation data were evaluated by Scatchard analysis using both the EBDA NcPherson, G. A., Computer Programs Biomed.
# [6] = tested on: sigma receptor; assay: [3H]DTG displacement radioligand binding assay, guinea pig brain membranes
# [7] = tested on: sigma site in brain sections; assay: receptor autoradiography of [3H]DTG binding, brain sections; set-up: species or system guinea pig and rat; conditions: 2 nM [3H]DTG
# Method: Male Sprague Dawley rats (200-250 g) and NIH guinea pigs (300-350 g) were sacrificed, their brains rapidly removed and processed for receptor autoradiography according to the method of Herkenham et al. J. Neuroscience 2:1129-1149 (1982).
# Incubations were terminated by 4×2 minute washes in […] Tris-HCl (pH 7.4, 4° C.) with 1 mg/ml BSA, rapidly dried under a stream of cool air and placed in x-ray cassettes with ^3 H-sensitive film (^3 H-ultrofilm, LKB). Films were developed 6-8 weeks later (D-19, Kodak).
# [8] = tested on: anxiety behavior of mice; assay: black:white test box (light/dark exploration) of mice
# [9] = tested on: rats trained to discriminate cyclazocine; conditions: same concentrations; Holtzman, private communication; cited from earlier work
# [10] = tested on: PCP receptor; conditions: Tam, personal communication; cited from earlier work
# [11] = tested on: sigma receptor; assay: (+)[3H]3-PPP saturation binding, guinea pig brain membranes
# Method: For radioreceptor assays aliquots of the frozen membrane suspension were thawed and diluted tenfold with 50 nM Tris/HCl buffer, pH 7.4. […] The protein concentration in the 1 ml final incubation volume was 800 ug, corresponding to 32 mg of brain tissue (original wet weight). […] After incubation for 90 minutes at room temperature the membrane suspension was rapidly filtered under vacuum through Whatman GF/B glass fiber filters using a Brandel 48 well cell harvester (Brandel, Gaithersburg, Md.). […] The filters were dissolved in 10 ml each of Cytoscint (Westchem Products, San Diego, Calif.) and radioactivity was measured by liquid scintillation spectrometry at a counting efficiency of 35-50%.
# [12] = tested on: social interaction of rats; assay: rat social interaction test; format: in vivo, rat (male Hooded Lister); conditions: for time spent in social interaction: i.p., 10 min session, n=6, P<0.001
# Description: A second preferred animal model is the rat social interaction test described by Jones, B. J. et al., supra, wherein the time that two mice spend in social interaction is quantified. […] Both the familiarity and the light level of the test arena may be manipulated. Undrugged rats show the highest level of social interaction when the test arena is familiar and is lit by low light. Social interaction declines if the arena is unfamiliar to the rats or is lit by bright light. Anxiolytic agents prevent this decline. The overall level of motor activity may also be measured to allow detection of drug effects specific to social behaviors.
# Male Hooded Lister rats (Glaxo bred, 200-250 g), were housed 5 to a cage and were kept in the laboratory environment for at least a week before testing. Rats paired in the test were taken from separate cages.
# The test arena consisted of an open-topped box, 62×62×33 cm with a 7×7 matrix of infra-red photocell beams in the walls, 2.5 cm from the floor.
# Testing involved placing each member of a pair of rats in opposite comers of the arena and then leaving them undisturbed for 10 min. while recording their behavior remotely on videotape. The behavioral assessments were made subsequently from the recordings. The time spent in social interaction was measured and expressed as a cumulative total for the 10 min session. The behaviors that comprised social interaction were: following with contact, sniffing (but not sniffing of the hindquarters), crawling over and under, tumbling, boxing and grooming.
# [13] = tested on: anxiety behavior of mice; conditions: mouse, in vivo, ip, 10 mg/kg
# [14] = tested on: D2 class of striatal dopamine receptors; conditions: cited from earlier work
# [15] = tested on: adrenergic, muscarinic, cholinergic, or histaminergic sites; conditions: cited from earlier work
# [16] = tested on: rats; conditions: rat, in vivo; cited from earlier work
# [17] = tested on: sigma receptor; conditions: cited from earlier work
# [18] = tested on: D1 subclass of dopamine receptors; conditions: cited from earlier work
# [19] = tested on: dopamine-stimulated cAMP production; conditions: in vitro; cited from earlier work
# [20] = tested on: mu, delta and kappa receptors; conditions: cited from earlier work
# [21] = Example 25, guinea pig brain membrane homogenates, read-out: IC50 binding values
smiles,measurement,setting,value
"Cc1ccccc1NC(=N)Nc1ccc(N=[N+]=[N-])cc1C [[^3 H]AZ--DTG, [^3 H]-m-azido-1,3-di-o-tolylguanidine]",Kd,[1],28 nM
same,size of polypeptide selectively labeled,[2]; fluorography of SDS-PAGE gels after UV irradiation,29 kD
O=C1CC2(CCCC2)CC(=O)N1CCCCN1CCN(c2ncccn2)CC1 [Buspirone],taming of the aggressive response,[3],efficacy in a predictive animal model
"CCCN1CCCC(c2cccc(O)c2)C1 (single isomer, unassigned; (+)) [(+)3-PPP, 3-(3-hydroxyphenyl)-N-(1-propyl)-piperidine, reference compound]",effect on [3H]AZ-DTG labeling of the 29 kD polypeptide,[2]; 10 uM,completely blocked
same,IC50,[4],33 ± 12 nM
"[3H]c1ccc(NC(=N)Nc2ccc([3H])cc2C)c(C)c1 [[^3 H]DTG, N,N'-di-(4-[^3 H]-2-methylphenyl)-guanidine]","specific binding, % of total binding",[5],90-97%
same,total binding,[5]; 0.9 nM [3H]DTG,2700 cpm
same,nonspecific binding,"[5]; 0.9 nM [3H]DTG, 10 uM DTG or 10 uM haloperidol",50-150 cpm
same,abolition of specific binding by boiling of membranes,[5]; 100° C. for 10 minutes prior to assay,90%
same,reversibility of binding,[5]; after addition of 10 uM unlabeled DTG,fully reversible
same,binding to sigma receptor sites (words),[5],"binds specifically and with high affinity to a single class of binding sites; also recorded: bound specifically, saturably, reversibly, and with high affinity"
same,binding to sigma receptor sites (words),[5]; listed as [^3 H]--DTG,"binds reversibly, saturably, selectively and with high affinity"
same,maximum number of binding sites (Bmax),[5]; original wet weight,85 pmol/g brain tissue
same,time to binding equilibrium,[5]; room temperature,60 to 90 min
same,specific binding of total [3H]DTG binding,[6],> 90%
same,distribution/density of [3H]DTG binding,[7],"low density of specific binding diffusely distributed throughout the gray matter; also recorded: heterogeneous distribution of enriched binding in limbic and sensorimotor structures; also recorded: Very dense binding was seen in the choroid plexus; also recorded: very dense binding was found in the subcommissural organ; also recorded: The oculomotor nucleus, and more caudally, the trochlear nucleus were very densely labeled; also recorded: In the hindbrain the locus coeruleus was the most densely labeled nucleus"
"Cc1ccccc1NC(=N)Nc1ccccc1C [DTG, N,N'-di-(2-methylphenyl)guanidine]",in vitro [3H]DTG displacement activity,[6],found to possess the aforesaid in vitro [^3 H]DTG displacement activity
same,anxiolytic activity,[8]; s.c.,does not exhibit anxiolytic activity
same,"rears, crossings, % time in the black compartment","[8]; s.c., concentrations tested",did not affect significantly
same,substitution for cyclazocine,[9],fully substitutable for cyclazocine
same,activity in [3H]-PCP binding assay,[10],virtually inactive
"CCCN1CCC[C@H](c2cccc(O)c2)C1 [(+)[^3 H]3-PPP, (+)[^3 H]3-(3-hydroxyphenyl)-N-(1-propyl)-piperidine]",Bmax,[11],80 pmol/g fresh brain weight
same,Kd,[11],30 nM
"CN1C(=O)CN=C(c2ccccc2)c2cc(Cl)ccc21 [diazepam, reference compound]",displacement of [3H]DTG,[6],no significant displacement
same,numbers of line crossings and/or rears in the light compartment,"[8]; mouse, in vivo, ip",increased at the expense of those in the dark compartment
same,proportion of time in light area / percentage of time in black compartment,"[8]; mouse, in vivo, ip","dose-dependently increased the proportion of time the mice spent in the larger, lighted area"
same,time spent in social interaction,[12],significantly increased social interactions
same,sedation: numbers of rears and line crossings,[13],decreased significantly showing that the drug was markedly sedative
"CCCN1CCC[C@@H](c2cccc(O)c2)C1 [(-)3-PPP, reference compound]",IC50,[6]; [21],280 ± 21 nM
same,IC50,"[6]; read-out: IC50 vs. [3H]DTG, Table III, ± SEM, average from 2-4 separate experiments in triplicate",280 ± 21 nM
same,IC50,[4],235 nM
"N=C(Nc1ccccc1)Nc1ccccc1 [DPG, N,N'-di(phenyl)guanidine]",substitution for cyclazocine,[9],fully substitutable for cyclazocine
OC(CCCN1CCN(c2ncc(F)cn2)CC1)c1ccc(F)cc1 (stereo not drawn) [BMY 14802],maximal density of [3H]spiperone-labeled D2 site,[14]; chronic administration (20 days) to rats,did not increase the maximal density
same,inhibition of [3H]spiperone binding to D2,[14],does not inhibit the binding of [^3 H]spiperone
same,"binding to adrenergic, muscarinic, cholinergic, or histaminergic sites",[15],"does not bind to the adrenergic, muscarinic, cholinergic, or histaminergic sites"
same,catalepsy,[16],did not cause catalepsy in rats
same,binding to the sigma receptor,[17],binds with relatively high affinity to the sigma receptor
same,potency of dextrorotatory vs levorotatory enantiomer at inhibiting sigma binding,[17],10 times
same,interaction with D1 subclass / inhibition of [3H]SCH 23390 binding in vitro,[18],does not appear to interact with the D1 subclass of dopamine receptors
same,inhibition of dopamine-stimulated cAMP production,[19],does not inhibit dopamine-stimulated cAMP production
"Cc1ccccc1NC(=N)NC12CC3CC(CC(C3)C1)C2 [AdTG, N-(Adamantan-1-yl)-N'-(2-methylphenyl)guanidine]",in vitro [3H]DTG displacement activity,[6],found to possess the aforesaid in vitro [^3 H]DTG displacement activity
same,IC50,[6]; [21],7.6 ± 0.3 nM
same,IC50,"[6]; list of especially preferred compounds, read-out: IC50 (high binding to the sigma receptor)",7.6 nM
same,IC50,"[6]; read-out: IC50, [3H]DTG displacement in guinea-pig brain homogenates, most potent, n=6",2.6 ± 0.6 nM
same,IC50,"[6]; read-out: IC50 vs [3H]DTG, Table I, guinea pig brain membranes",3 ± 1 nM
same,numbers of line crossings and/or rears in the light compartment (vs dark),[8]; oral,increased at the expense of those in the dark compartment
same,proportion of time in light area / percentage of time in black compartment,[8]; oral,"increased significantly the proportion of time the mice spent in the larger, lighted area"
same,anxiolytic activity,"[8]; oral, 1 mg/kg",have anxiolytic activity when orally administered
same,latency to entering the dark compartment,[8]; s.c.,increased in a dose-dependent manner
same,numbers of line crossings and/or rears in the light compartment (vs dark),[8]; s.c.,increased at the expense of those in the dark compartment
same,proportion of time spent in the lighted area,[8]; s.c.,"dose dependently increased the proportion of time the mice spent in the larger, lighted area"
same,sedation: total numbers of rears and line crossings,[8]; s.c.,did not decrease significantly showing that the drug was not sedative at this level
same,"dose giving about the same result, relative to diazepam",[12]; 0.1 mg/kg vs 1 mg/kg diazepam,about the same result at one-tenth the dose of diazepam
same,time spent in social interaction,[12],significantly increased social interactions
"C=CCN1CCC2(C)c3cc(O)ccc3CC1C2C (single isomer, unassigned; (-)) [(-)SKF 10,047, N-allyl-normetazocine, reference compound]","binding to delta, mu and kappa receptors",[20],apparently labeled the mu and kappa receptors but not the sigma receptors
same,IC50,[6]; read-out: IC50 binding values,4000 ± 566 nM
same,IC50,[6]; read-out: IC50 vs. [3H]DTG,4000 nM

# From US5574070A, “Substituted guanidines having high binding to the sigma receptor and the use thereof” (priority 1993, dated 1996)
